Source: patent publication US20100120778A1, “QUINOXALINE-BASED LXR MODULATORS” (Wyeth, priority 2008, published 2010)
Read-outs that look alike come from different tables or passages of the source.

What was measured:
human LXRα = molecular target: T1, human LXRα (Homo sapiens, UniProt Q13133); assay: Ligand-binding test procedure for human LXRα (3H T0901317 tracer, flash plates); details: biotinylated hLXRα, tracer 3H T0901317, +4° C. over night
T1 construct: biotin (biotinylated); made in house; host or cells: E. coli
T1 sequence (Q13133 1-447): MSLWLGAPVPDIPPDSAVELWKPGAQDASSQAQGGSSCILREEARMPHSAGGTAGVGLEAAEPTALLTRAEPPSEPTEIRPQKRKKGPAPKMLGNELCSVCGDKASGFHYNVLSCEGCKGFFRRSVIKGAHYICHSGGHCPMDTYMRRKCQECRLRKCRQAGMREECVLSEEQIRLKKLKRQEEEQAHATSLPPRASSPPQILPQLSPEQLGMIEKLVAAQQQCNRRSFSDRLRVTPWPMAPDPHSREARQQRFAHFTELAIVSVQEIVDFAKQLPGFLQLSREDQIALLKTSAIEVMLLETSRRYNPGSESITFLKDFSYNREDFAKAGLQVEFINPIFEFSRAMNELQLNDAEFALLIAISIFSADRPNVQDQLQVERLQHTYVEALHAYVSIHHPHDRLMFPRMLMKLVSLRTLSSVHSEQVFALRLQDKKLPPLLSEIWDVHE
Description: II. Ligand-Binding Test Procedure for Human LXRα.
Receptor source: E. coli extract from cells expressing biotinylated hLXRα. Extract was made in a similar buffer as above, but with 50 mM TRIS.
Washed streptavidin and coated flash plates with wash buffer. Diluted receptor extract to give Bmax˜4000 cpm and add to the wells. Wrapped the plates in aluminum foil and stored them at +4° C. over night.
Made a dilution series in DMSO of the test ligands. Made a 5 nM solution of the radioactive tracer in buffer. Mixed 250 μl diluted tracer with 5 μl of the test ligand from each concentration of the dilution series. Washed the receptor-coated flash plates. Added 200 μl per well of the ligand/radiolabel mixture to the receptor-coated flash plates. Wrapped the plates in aluminum foil and incubate at +4° C. over night.
Aspirated wells, and wash the flashed plates. Sealed the plate. Measured the remaining radioactivity in the plate.

human LXRβ = molecular target: T2, human LXRβ (Homo sapiens, UniProt P55055); assay: Ligand-binding test procedure for human LXRβ (3H T0901317 tracer, flash plates); details: biotinylated hLXRβ, tracer 3H T0901317, +4° C. over night
T2 construct: biotin (biotinylated); made in house; host or cells: E. coli
T2 sequence (P55055 1-460): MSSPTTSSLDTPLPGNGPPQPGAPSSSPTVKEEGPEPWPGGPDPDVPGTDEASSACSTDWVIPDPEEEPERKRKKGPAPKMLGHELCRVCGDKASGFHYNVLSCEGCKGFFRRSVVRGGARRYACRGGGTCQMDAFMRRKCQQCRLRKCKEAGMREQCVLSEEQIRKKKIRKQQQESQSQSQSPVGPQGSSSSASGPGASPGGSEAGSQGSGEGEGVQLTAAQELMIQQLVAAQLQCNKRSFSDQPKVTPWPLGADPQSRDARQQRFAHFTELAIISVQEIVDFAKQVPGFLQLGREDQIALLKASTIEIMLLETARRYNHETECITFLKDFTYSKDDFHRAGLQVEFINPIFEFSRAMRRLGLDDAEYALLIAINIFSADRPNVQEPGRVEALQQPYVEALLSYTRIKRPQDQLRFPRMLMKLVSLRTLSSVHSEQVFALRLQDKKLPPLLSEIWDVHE

[1] = system: ABCA1 gene (regulation by LXR) in THP-1 cells; assay: Quantitative analysis of ABCA1 gene regulation in THP-1 cells (real-time RT-PCR); format: cell-based, human; details: for Agonism ABCA1: LXR agonist reference at 1.0 uM as positive control; for EC50: Homo sapiens, read-out: EC50 ABCA1
Description: III. Quantitative Analysis of ABCA1 Gene Regulation In THP-1 Cells. The compounds of formula (I) effect on the regulation of the ABCA1 gene was evaluated using the following procedure. Materials and Methods Cell culture: The THP-1 monocytic cell line (ATCC # TIB-202) was obtained from American Type Culture Collection (Manassas, Va.) and cultured in RPMI 1640 medium (Gibco, Carlsbad, Calif.) containing 10% FBS, 2 mM L-glutamine, and 55 uM beta-Mercaptoethanol (BME). […] Louis, Mo.) for three days to induce differentiation into adherent macrophages. Differentiated THP-1 cells were treated with test compounds or ligands dissolved in DMSO (Sigma, D-8779) in culture medium lacking phorbal ester. […] Dose response effects were measured in duplicate, in the range of 0.001 to 30 micromolar concentrations and treated cells were incubated for an additional 18 hrs prior to RNA isolation. Unstimulated cells treated with vehicle were included as negative controls on each plate. […] L., J. Med. Chem. (2000), 45:1963-1966.). Results of antagonist analysis are expressed as % antagonism and IC50 (in μM). RNA isolation and quantitation: Total cellular RNA was isolated from treated cells cultured in 96-well plates using PrepStation 6100 (Applied Biosystems, Foster City, Calif.), according to the manufacturer's recommendations. RNA was resuspended in ribonuclease-free water and stored at -70° C. prior to analysis. RNA concentrations were quantitated with RiboGreen test procedure, #R-11490 (Molecular Probes, Eugene, Oreg.). Gene expression analysis: Gene-specific mRNA quantitation was performed by real-time PCR with the Perkin Elmer Corp. chemistry on an ABI Prism 7700 Sequence detection system (Applied Biosystems, Foster City, Calif.) according to the manufacturer's instructions. Samples (50-100 ng) of total RNA were assayed in duplicate or triplicate in 50 μl reactions using one-step RT-PCR and the standard curve method to estimate specific mRNA concentrations. Sequences of gene-specific primer and probe sets were designed with Primer Express Software (Applied Biosystems, Foster City, Calif.). The human ABCA1 primer and probe sequences are: forward, [NT], reverse, [NT], and probe, 6[…] and PCR reactions were performed according to PE Applied Biosystem's protocol for Taqman Gold RT-PCR or Qiagen's protocol for Quantitect probe RT-PCR. Relative levels of ABCA1 mRNA are normalized using GAPDH mRNA or 18S rRNA probe/primer sets purchased commercially (Applied Biosystems, Foster City, Calif.). Statistics: Mean, standard deviation and statistical significance of duplicate evaluations of RNA samples were assessed using ANOVA, one-way analysis of variance using SAS analysis.

[2] = Gene regulation by LXR (THP1), differentiated THP-1 cells, 18 hrs
[3] = Gene regulation by LXR (THP1), differentiated THP-1 cells, 18 hrs, ABCA1 mRNA

Row | Structure (SMILES) | IC50 (human LXRα) | IC50 (human LXRβ) | EC50 [1, 3] | Agonism ABCA1 [1, 2] | EC50 ([1]; THP-1, 18 h)
1 | CCS(=O)(=O)c1cccc(-c2ccc(-c3nc4cccc(C(F)(F)F)c4nc3C)cc2)c1 [Example 31, 2-[3′-(ethylsulfonyl)biphenyl-4-yl]-3-methyl-5-(trifluoromethyl)quinoxaline] | 265 nM | – | – | 65% | 890 nM
2 | CNS(=O)(=O)c1cccc(-c2ccc(-c3nc4cccc(C(F)(F)F)c4nc3C)cc2)c1 [Example 53, N-methyl-4′-[3-methyl-5-(trifluoromethyl)quinoxalin-2-yl]biphenyl-3-sulfonamide] | > 1000 nM | – | – | 55% | 1400 nM
3 | Cc1nc2cccc(C(F)(F)F)c2nc1-c1ccc(-c2cncc(S(C)(=O)=O)c2)cc1 [Example 73, 2-methyl-3-{4-[5-(methylsulfonyl)pyridin-3-yl]phenyl}-5-(trifluoromethyl)quinoxaline] | > 1000 nM | 123 nM | – | – | –
4 | Cc1nc2c(C(F)(F)F)cccc2nc1-c1ccc(-c2cncc(S(C)(=O)=O)c2)cc1 [Example 74, 3-methyl-2-{4-[5-(methylsulfonyl)pyridin-3-yl]phenyl}-5-(trifluoromethyl)quinoxaline] | > 1000 nM | > 1000 nM | – | – | –
5 | CS(=O)(=O)c1cccc(-c2cccc(Oc3cnc4c(Cl)cccc4n3)c2)c1 [Example 78, 5-chloro-2-{[3′-(methylsulfonyl)biphenyl-3-yl]oxy}quinoxaline] | > 1000 nM | 263 nM | – | – | –
6 | CS(=O)(=O)c1cccc(-c2ccc(Oc3cnc4c(Cl)cccc4n3)cc2)c1 [Example 79, 5-chloro-2-{[3′-(methylsulfonyl)biphenyl-4-yl]oxy}quinoxaline] | > 1000 nM | > 1000 nM | – | – | –
7 | CCS(=O)(=O)c1cccc(-c2cccc(Oc3nc4cccc(Cl)c4nc3C)c2)c1 [Example 81, 5-chloro-2-{[3′-(ethylsulfonyl)biphenyl-3-yl]oxy}-3-methylquinoxaline] | > 1000 nM | 240 nM | – | – | –
8 | Cc1nc2c(Cl)cccc2nc1Oc1ccc(-c2cccc(S(C)(=O)=O)c2)cc1 [Example 82, 5-chloro-3-methyl-2-{[3′-(methylsulfonyl)biphenyl-4-yl]oxy}quinoxaline] | > 1000 nM | 1030 nM | – | – | –
9 | CCS(=O)(=O)c1cccc(-c2ccc(Oc3nc4cccc(Cl)c4nc3C)cc2)c1 [Example 83, 5-chloro-2-{[3′-(ethylsulfonyl)biphenyl-4-yl]oxy}-3-methylquinoxaline] | > 1000 nM | > 1000 nM | – | – | –
10 | Cc1nc2c(Cl)cccc2nc1Oc1ccc(-c2cccc(NS(C)(=O)=O)c2)cc1 [Example 93, N-{4′-[(5-chloro-3-methylquinoxalin-2-yl)oxy]biphenyl-3-yl}methanesulfonamide] | 3530 nM | 869 nM | – | – | –

Second part, led by results:

Row | IC50 (human LXRα) | IC50 (human LXRβ) | EC50 [1, 3] | Structure (SMILES) | Agonism ABCA1 [1, 2] | EC50 ([1]; THP-1, 18 h)
11 | 752 nM | 49 nM | 1090 nM | Cc1nc2c(C(F)(F)F)cccc2nc1-c1ccc(-c2cccc(S(C)(=O)=O)c2)cc1 [Example 1, 3-methyl-2-[3′-(methylsulfonyl)biphenyl-4-yl]-5-(trifluoromethyl)quinoxaline] | 79% | –
12 | 2190 nM | 287 nM | – | Cc1nc2c(C(F)(F)F)cccc2nc1-c1cc(Oc2cccc(S(=O)(=O)CCCF)c2)ccc1Cl [Example 75, 2-(2-chloro-5-{3-[(3-fluoropropyl)sulfonyl]phenoxy}phenyl)-3-methyl-5-(trifluoromethyl)-quinoxaline] | – | –
13 | 401 nM | 204 nM | – | Cc1nc2c(C(F)(F)F)cccc2nc1-c1cc(Oc2cccc(S(=O)(=O)CCCCl)c2)ccc1Cl [Example 76, 2-(2-chloro-5-{3-[(3-chloropropyl)sulfonyl]phenoxy}phenyl)-3-methyl-5-(trifluoromethyl)-quinoxaline] | – | –
14 | 405 nM | 128 nM | 4420 nM | Cc1nc2c(C(F)(F)F)cccc2nc1-c1cc(Oc2cccc(S(=O)(=O)CCCC#N)c2)ccc1Cl [Example 77, 4-[(3-{4-chloro-3-[3-methyl-5-(trifluoromethyl)quinoxalin-2-yl]phenoxy}phenyl)sulfonyl]-butanenitrile] | 45% | –
15 | 818 nM | 108 nM | – | Cc1nc2c(Cl)cccc2nc1Oc1cccc(-c2cccc(S(C)(=O)=O)c2)c1 [Example 80, 5-chloro-3-methyl-2-{[3′-(methylsulfonyl)biphenyl-3-yl]oxy}quinoxaline] | – | –
